Measurements as given in patent publication US10513694B2, “Thienopyrrole compounds and uses thereof” (PROMEGA CORPORATION, priority 2015, dated 2019).
Entries after “also recorded” stand apart in the source; their conditions may differ.

Legend:
Nluc luciferase = Nluc luciferase (Oplophorus gracilirostris, UniProt Q9GV45, A31E/A60N/A81I/F95D/I117V/K70R/L54V/L99Q/M102K/N193R/P142E/Q151K/Q38R/Q45L/V71I/Y165I); experiment: Inhibition of purified Nluc, dose and time dependence; format: biochemical; conditions: pro-substrate PBI-4442, DTT, TERGITOL, RT, various time points
Sequence of Nluc luciferase (Q9GV45 28-196 with tags or gaps with the stated changes limits assumed): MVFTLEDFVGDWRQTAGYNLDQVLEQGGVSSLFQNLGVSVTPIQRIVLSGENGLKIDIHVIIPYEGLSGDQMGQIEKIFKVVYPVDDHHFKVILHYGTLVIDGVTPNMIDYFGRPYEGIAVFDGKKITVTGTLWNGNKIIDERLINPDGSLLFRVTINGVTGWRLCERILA
Procedure: A solution of purified Nluc and an Nluc pro-substrate (PBI-4442, which is described in US 2013/0130289), which is converted to an Nluc substrate upon reduction with DTT, were prepared in PBS buffer, pH 7.5. A 40 mM solution of DTT in PBS, pH 7.5 containing 1% TERGITOL was also prepared. Titrations of the thienopyrrole compounds JRW-0004, WZ141-88, WZ141-86, WZ141-74, WZ141-84, WZ141-89, WZ141-90, and WZ141-91 in the buffer containing DTT and TERGITOL were then prepared. An equal volume of the Nluc/pro-substrate solution was added to the thienopyrrole compound titrations in wells of an assay plate. The reactions were incubated at RT, and luminescence was measured at various time points on the Tecan M100 Pro plate reader (integration time 200 ms). IC50 values were determined using GraphPad Prism 6.03.

NANOLUC® enzyme = NANOLUC® enzyme (Oplophorus gracilirostris, UniProt Q9GV45, A31E/A60N/A81I/F95D/I117V/K70R/L54V/L99Q/M102K/N193R/P142E/Q151K/Q38R/Q45L/V71I/Y165I); experiment: Inhibitor IC50 determination (NANOLUC enzyme, furimazine); format: biochemical; conditions: IC50 (uM), 0.4 ng/ml NANOLUC enzyme, final furimazine 10 uM (at Km)
Sequence of NANOLUC® enzyme (Q9GV45 28-196 with tags or gaps with the stated changes limits assumed): as above
Procedure: The following example provides the IC50 values for the compounds disclosed herein. See Table 5 NANOLUC® enzyme was diluted to 0.4 ng/ml in CO2 independent media+10% FBS to make the detection reagent. A 3× dilution series of each inhibitor was then made in the detection reagent. A “no inhibitor” control was also made for each sample. 50 ul of each inhibitor dilution was mixed with 50 ul of NanoGlo buffer containing 20 uM furimazine. (Final furimazine concentration is 10 uM which is at Km.), and luminescence measured. Each sample was normalized to the “no inhibitor” control. The […] values were then determined using GraphPad Prism (log [inhibitor] vs. normalized response).

purified Nluc enzyme = target: T1, purified Nluc enzyme (Oplophorus gracilirostris, UniProt Q9GV45, A31E/A60N/A81I/F95D/I117V/K70R/L54V/L99Q/M102K/N193R/P142E/Q151K/Q38R/Q45L/V71I/Y165I); format: biochemical; conditions: titration up to 100 μM final; RT 2 hrs; pro-substrate PBI-4442 + DTT
T1 construct: purchased Promega Corporation
T1 sequence (Q9GV45 28-196 with tags or gaps with the stated changes limits assumed): as above
Procedure: In a Corning 3570 assay plate, purified Nluc enzyme (Promega Corporation), 20 mM DTT, and an Nluc pro-substrate (PBI-4442, which is described in US Patent Publication No. 2013/0130289), which is converted to an Nluc substrate upon reduction with DTT, was added. Compound titrations of JRW-0004, JRW-0013, JRW-0006, JRW-0042, JRW-0138, and JRW-0147 were then made (1:2 serial dilution in PBS, 11 points plus no inhibitor control, starting at 200 μM; 100 μM final concentration in reaction). Compound titrations were added in equal volume to the wells of the assay plate. The reactions were incubated at RT for 2 hrs, and luminescence was measured on Tecan M1000 Pro plate reader. Half-maximal inhibitor (thienopyrrole compound) concentrations (IC50s) were determined using GraphPad Prism 6.03.

[1] = test system: firefly luciferase, e.g., ULTRAGLO® luciferase; experiment: Specificity of inhibition: firefly luciferase activity; format: biochemical; conditions: 1 μM luciferin in Luciferase Detection Reagent; RT 2 hrs
Procedure: (§1) The following example describes the specificity of disclosed thienopyrrole compounds, JRW-0004, JRW-0013, JRW-0006, JRW-0042, JRW-0138, and JRW-0147, to inhibit Nluc luciferase activity versus firefly luciferase activity, e.g., ULTRAGLO® luciferase. In a Corning 3570 assay plate, a solution containing 1 μM luciferin in Luciferase Detection Reagent (Promega Corporation V865/859) was added to the assay wells. An equal volume of titrations the thienopyrrole compounds, JRW-0004, JRW-0013, JRW-0006, JRW-0042, JRW-0138, and JRW-0147 were then added to the wells. The reactions were incubated at RT for 2 hrs, and luminescence was measured on Tecan M1000 Pro plate reader.

Nluc = Nluc (Oplophorus gracilirostris, UniProt Q9GV45, A31E/A60N/A81I/F95D/I117V/K70R/L54V/L99Q/M102K/N193R/P142E/Q151K/Q38R/Q45L/V71I/Y165I); experiment: Specificity of inhibition of Nluc luciferase: Nluc; format: biochemical
Sequence of Nluc (Q9GV45 28-196 with tags or gaps with the stated changes limits assumed): as above

UltraGlo luciferase = experiment: Specificity of inhibition of Nluc luciferase: UltraGlo luciferase; format: biochemical, firefly; conditions: RT 2 hrs
Procedure: as §1, with “JRW-0251, JRW-0344,” for “JRW-0004, JRW-0013, JRW-0006, JRW-0042, JRW-0138,”

COC(=O)c1cc2sccc2n1CC(=O)N(Cc1ccccc1)c1cccc(C)c1 [WZ-141-86, methyl 4-(2-(benzyl(m-tolyl)amino)-2-oxoethyl)-4H-thieno[3,2-b]pyrrole-5-carboxylate]
Inhibition of Nluc luciferase, dose and time dependence (FIGS. 4-6) (Nluc luciferase): inhibit Nluc luciferase in a dose- and time-dependent manner

CCN(C(=O)Cn1c(C(=O)NCCCN2CCOCC2)cc2sccc21)c1cccc(C)c1 [WZ-141-90, 4-(2-(ethyl(m-tolyl)amino)-2-oxoethyl)-N-(3-morpholinopropyl)-4H-thieno[3,2-b]pyrrole-5-carboxamide]
Inhibition of Nluc luciferase, dose and time dependence (FIGS. 4-6) (Nluc luciferase): inhibit Nluc luciferase in a dose- and time-dependent manner

CCN(C(=O)Cn1c(C(=O)N2CCN(C)CC2)cc2sccc21)c1cccc(C)c1 [WZ-141-91, N-ethyl-2-(5-(4-methylpiperazine-1-carbonyl)-4H-thieno[3,2-b]pyrrol-4-yl)-N-(m-tolyl)acetamide]
Inhibition of Nluc luciferase, dose and time dependence (FIGS. 4-6) (Nluc luciferase): inhibit Nluc luciferase in a dose- and time-dependent manner

CCN(C(=O)Cn1c(C(=O)O)cc2sccc21)c1cccc(C)c1 [WZ-141-74, 4-(2-(ethyl(m-tolyl)amino)-2-oxoethyl)-4H-thieno[3,2-b]pyrrole-5-carboxylic acid]
IC50 (NANOLUC® enzyme): 16.4 µM | Inhibition of Nluc luciferase, dose and time dependence (FIGS. 4-6) (Nluc luciferase): inhibit Nluc luciferase in a dose- and time-dependent manner

CCN(C(=O)Cn1c(C(=O)NC)cc2sccc21)c1cccc(C)c1 [WZ-141-84, 4-(2-(ethyl(m-tolyl)amino)-2-oxoethyl)-N-methyl-4H-thieno[3,2-b]pyrrole-5-carboxamide]
IC50 (NANOLUC® enzyme): 5.5 µM | Inhibition of Nluc luciferase, dose and time dependence (FIGS. 4-6) (Nluc luciferase): inhibit Nluc luciferase in a dose- and time-dependent manner

CCN(C(=O)Cn1c(C(=O)NC2CCCCC2)cc2sccc21)c1cccc(C)c1 [JRW-0006, N-cyclohexyl-4-(2-(ethyl(m-tolyl)amino)-2-oxoethyl)-4H-thieno[3,2-b]pyrrole-5-carboxamide]
IC50 (NANOLUC® enzyme): 0.26 µM | Inhibition of purified Nluc enzyme (FIG. 2) (purified Nluc enzyme): capable of inhibiting purified Nluc enzyme | Inhibition of firefly luciferase activity (FIG. 3) [1]: do not inhibit firefly luciferase activity; also recorded: did not inhibit the firefly luciferase activity

CCN(C(=O)Cn1c(C(=O)NCc2ccncc2)cc2sccc21)c1cccc(C)c1 [WZ-141-89, 4-(2-(ethyl(m-tolyl)amino)-2-oxoethyl)-N-(pyridin-4-ylmethyl)-4H-thieno[3,2-b]pyrrole-5-carboxamide]
Inhibition of Nluc luciferase, dose and time dependence (FIGS. 4-6) (Nluc luciferase): inhibit Nluc luciferase in a dose- and time-dependent manner

CCN(C(=O)Cn1c(C(=O)N[C@H]2CC[C@H](C(=O)NCCCCCCNC(=O)[C@H](CC(=O)O)NC(=O)[C@H](CC(=O)O)NC(=O)[C@H](CC(=O)O)NC(C)=O)CC2)cc2sccc21)c1cccc(C)c1 [JRW-0251, (11S,14S,17S)-17-acetamido-11,14-bis(carboxymethyl)-1-(trans-4-(4-(2-(ethyl(m-tolyl)amino)-2-oxoethyl)-4H-thieno[3,2-b]pyrrole-5-carboxamido)cyclohexyl)-1,10,13,16-tetraoxo-2,9,12,15-tetraazanonadecan-19-oic acid]
IC50 (NANOLUC® enzyme): 0.077 µM | Nluc, Avg (luminescence) (Nluc; [cmpd] 0.1953125 μM): 108634 | Nluc, S/B (Nluc; [cmpd] 0.1953125 μM): 0.95 | Nluc, Avg (luminescence) (Nluc; [cmpd] 0.390625 μM): 106075 | Nluc, S/B (Nluc; [cmpd] 0.390625 μM): 0.93 | Nluc, Avg (luminescence) (Nluc; [cmpd] 0.78125 μM): 105881 | Nluc, S/B (Nluc; [cmpd] 0.78125 μM): 0.92 | Nluc, Avg (luminescence) (Nluc; [cmpd] 1.5625 μM): 96602 | Nluc, S/B (Nluc; [cmpd] 1.5625 μM): 0.84 | Nluc, Avg (luminescence) (Nluc; [cmpd] 3.125 μM): 86555 | Nluc, S/B (Nluc; [cmpd] 3.125 μM): 0.76 | Nluc, Avg (luminescence) (Nluc; [cmpd] 6.25 μM): 81193 | Nluc, S/B (Nluc; [cmpd] 6.25 μM): 0.71 | Nluc, Avg (luminescence) (Nluc; [cmpd] 12.5 μM): 68664 | Nluc, S/B (Nluc; [cmpd] 12.5 μM): 0.60 | Nluc, Avg (luminescence) (Nluc; [cmpd] 25 μM): 55210 | Nluc, S/B (Nluc; [cmpd] 25 μM): 0.48 | Nluc, Avg (luminescence) (Nluc; [cmpd] 50 μM): 44219 | Nluc, S/B (Nluc; [cmpd] 50 μM): 0.39 | Nluc, Avg (luminescence) (Nluc; [cmpd] 100 μM): 34389 | Nluc, S/B (Nluc; [cmpd] 100 μM): 0.30 | Nluc, Avg (luminescence) (Nluc; [cmpd] 200 μM): 23311 | Nluc, S/B (Nluc; [cmpd] 200 μM): 0.20 | Inhibition of firefly luciferase activity (Table 3) (UltraGlo luciferase): did not inhibit the firefly luciferase activity | UltraGlo luciferase, Avg (luminescence) (UltraGlo luciferase; [cmpd] 0.1953125 μM): 83059 | UltraGlo luciferase, S/B (UltraGlo luciferase; [cmpd] 0.1953125 μM): 0.98 | UltraGlo luciferase, Avg (luminescence) (UltraGlo luciferase; [cmpd] 0.390625 μM): 82723 | UltraGlo luciferase, S/B (UltraGlo luciferase; [cmpd] 0.390625 μM): 0.98 | UltraGlo luciferase, Avg (luminescence) (UltraGlo luciferase; [cmpd] 0.78125 μM): 82812 | UltraGlo luciferase, S/B (UltraGlo luciferase; [cmpd] 0.78125 μM): 0.98 | UltraGlo luciferase, Avg (luminescence) (UltraGlo luciferase; [cmpd] 1.5625 μM): 82370 | UltraGlo luciferase, S/B (UltraGlo luciferase; [cmpd] 1.5625 μM): 0.98 | UltraGlo luciferase, Avg (luminescence) (UltraGlo luciferase; [cmpd] 3.125 μM): 81125 | UltraGlo luciferase, S/B (UltraGlo luciferase; [cmpd] 3.125 μM): 0.96 | UltraGlo luciferase, Avg (luminescence) (UltraGlo luciferase; [cmpd] 6.25 μM): 83665 | UltraGlo luciferase, S/B (UltraGlo luciferase; [cmpd] 6.25 μM): 0.99 | UltraGlo luciferase, Avg (luminescence) (UltraGlo luciferase; [cmpd] 12.5 μM): 83569 | UltraGlo luciferase, S/B (UltraGlo luciferase; [cmpd] 12.5 μM): 0.99 | UltraGlo luciferase, Avg (luminescence) (UltraGlo luciferase; [cmpd] 25 μM): 83382 | UltraGlo luciferase, S/B (UltraGlo luciferase; [cmpd] 25 μM): 0.99 | UltraGlo luciferase, Avg (luminescence) (UltraGlo luciferase; [cmpd] 50 μM): 81930 | UltraGlo luciferase, S/B (UltraGlo luciferase; [cmpd] 50 μM): 0.97 | UltraGlo luciferase, Avg (luminescence) (UltraGlo luciferase; [cmpd] 100 μM): 79556 | UltraGlo luciferase, S/B (UltraGlo luciferase; [cmpd] 100 μM): 0.94 | UltraGlo luciferase, Avg (luminescence) (UltraGlo luciferase; [cmpd] 200 μM): 77788 | UltraGlo luciferase, S/B (UltraGlo luciferase; [cmpd] 200 μM): 0.92

CCN(C(=O)Cn1c(C(=O)NC2CCCC2)cc2sccc21)c1cccc(C)c1 [WZ-141-88, N-cyclopentyl-4-(2-(ethyl(m-tolyl)amino)-2-oxoethyl)-4H-thieno[3,2-b]pyrrole-5-carboxamide]
IC50 (NANOLUC® enzyme): 0.54 µM | Inhibition of Nluc luciferase, dose and time dependence (FIGS. 4-6) (Nluc luciferase): inhibit Nluc luciferase in a dose- and time-dependent manner
